{"source": "paper PMC9982066", "about": "“Inhibition of Ehrlichia chaffeensis infection by cell-permeable macrocyclic peptides that bind type IV secretion effector Etf-1” (PNAS Nexus, 2023)", "key": {"THP-1 cells": {"tested_on": "THP-1 cells", "assay": "CellTiter-Glo luminescent cell viability assay", "settings": "2-day treatment"}, "E. chaffeensis [1]": {"tested_on": "E. chaffeensis", "assay": "E. chaffeensis infection of THP-1 cells, qPCR of 16S rRNA gene normalized to human actin", "type": "cell-based, Ehrlichia chaffeensis"}, "Etf-1-GFP": {"tested_on": "Etf-1-GFP", "assay": "mitochondrial localization of ectopically expressed Etf-1-GFP in RF/6A cells", "type": "cell-based, Ehrlichia chaffeensis", "settings": "10 μM, 2 days", "experimental": "For mitochondria localization analysis, RF/6A cells were seeded onto a cover glass in a 12-well plate for 3 h, then infected with E. chaffeensis at ∼30 MOI. Alternatively, cells were transfected with Etf-1-GFP or Etf-1-DsRed plasmids using Fugene HD (Promega) or by electroporation at 100 V and 1,000 µF using the Gene Pulser Xcell System (BioRad) according to the manufacturers’ instructions ([16]). […] To examine the roles of macrocyclic peptides on Etf-1 localization on E. chaffeensis inclusions, infected RF/6A cells were treated with 10 μM peptides at 3 h pi for 2 days. At 2 days pi or pt, cells were washed 3 times with PBS, then fixed in 4% PFA for 20 min. Native Etf-1 and mitochondria marker cytochrome C proteins were labeled with rabbit anti-Etf-1 IgG and mouse anti-cytochrome C, then with AF488-conjugated goat anti-rabbit and anti-mouse secondary antibodies in PGS (PBS with 0.1% gelatin and 0.1% saponin) for 1 h each at RT. Host-cell and Ehrlichial DNAs were stained with 300 nM DAPI, and fluorescence with differential interference contrast images were observed and captured with a DeltaVision deconvolution microscope (Applied Precision, Issaquah, WA, USA). Percentages of Etf-1 protein colocalization with macrocyclic peptides or E. chaffeensis inclusions were quantified by counting 10–20 cells per group from three independent experiments."}, "Etf-1": {"molecular_target": "Etf-1 (Ehrlichia chaffeensis, UniProt Q2GG12)", "sequence (Q2GG12 entry or part of it)": "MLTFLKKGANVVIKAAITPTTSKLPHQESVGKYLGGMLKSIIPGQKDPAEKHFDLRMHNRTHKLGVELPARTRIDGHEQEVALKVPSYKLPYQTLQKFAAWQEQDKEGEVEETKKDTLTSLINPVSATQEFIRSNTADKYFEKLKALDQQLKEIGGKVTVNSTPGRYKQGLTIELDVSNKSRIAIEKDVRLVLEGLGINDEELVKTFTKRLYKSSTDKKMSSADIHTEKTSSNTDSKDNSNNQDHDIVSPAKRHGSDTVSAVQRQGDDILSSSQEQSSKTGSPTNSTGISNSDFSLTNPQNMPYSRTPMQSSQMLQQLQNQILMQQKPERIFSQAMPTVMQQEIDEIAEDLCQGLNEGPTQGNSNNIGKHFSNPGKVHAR", "assay": "immunofluorescence of native Etf-1 localization in E. chaffeensis-infected RF/6A cells", "type": "cell-based", "settings": "2 days", "experimental": "Fig. 7. […] RF/6A cells were seeded onto a coverglass in a 12-well plate for 1 h, and infected with E. chaffeensis (Ech) at ∼30 MOI. […] Cells were fixed in 4% PFA and labeled with rabbit anti-Etf-1 IgG and AF488-conjugated goat anti-rabbit secondary antibody in PGS for 1 h each at RT. DAPI was used to label both host-cell nuclei and Ehrlichia DNAs (pseudocolored in green), and E. chaffeensis organisms were shown as green-colored, round to pleomorphic cocci (arrowhead in panel B) that further clustered as spherical morulae. Thin arrows, E. chaffeensis-containing inclusion; open arrows, filamentous-shaped mitochondria. DeltaVision microscope. […] (D) Percentage of E. chaffeensis inclusions colocalized with Etf-1 were quantified by counting ∼20 cells per group from three independent experiments.\nFor mitochondria localization analysis, RF/6A cells were seeded onto a cover glass in a 12-well plate for 3 h, then infected with E. chaffeensis at ∼30 MOI. […] Host-cell and Ehrlichial DNAs were stained with 300 nM DAPI, and fluorescence with differential interference contrast images were observed and captured with a DeltaVision deconvolution microscope (Applied Precision, Issaquah, WA, USA). Percentages of Etf-1 protein colocalization with macrocyclic peptides or E. chaffeensis inclusions were quantified by counting 10–20 cells per group from three independent experiments."}, "E. chaffeensis [2]": {"tested_on": "E. chaffeensis", "assay": "E. chaffeensis infection of RF/6A cells (numbers and sizes of morulae)", "type": "cell-based, Ehrlichia chaffeensis", "settings": "10 μM, 2 days"}}, "note": "Starred links: 1 amine or outer side, 2 acyl side, 3 side chain; linkers in the order of their positions; H or OH if unused. Positions of bridges follow the written chain, without caps; N, C: chain ends. Non-standard residues stand in square brackets, D forms with d. Residues, ends and D or L forms follow the SMILES beside them. Trimesoyl = O=C(c1cc(C(=O)[*:2])cc(C(=O)[*:3])c1)[*:1]; d2Nal = N[C@H](Cc1ccc2ccccc2c1)C(=O)O; Dap = NC[C@H](N)C(=O)O"}
{"smiles": "CC(C)C[C@H]1NC(=O)[C@H](CO)NC(=O)[C@H]2CCCN2C(=O)[C@H](CCC(N)=O)NC(=O)[C@H](Cc2c[nH]cn2)NC(=O)[C@H](Cc2ccc(O)cc2)NC(=O)c2cc3cc(c2)C(=O)NC[C@H](NC1=O)C(=O)N[C@@H](Cc1ccccc1)C(=O)N[C@H](Cc1ccc2ccccc2c1)C(=O)N[C@H](CCCNC(=N)N)C(=O)N[C@@H](CCCNC(=N)N)C(=O)N[C@H](CCCNC(=N)N)C(=O)N[C@@H](CCCNC(=N)N)C(=O)N[C@H](C(N)=O)CNC3=O", "note": "[Peptide B7, TMA-Tyr-His-Gln-pro-Ser-leu-Dap-Phe-nal-arg-Arg-arg-Arg-Dap] (YHQ[dP]S[dL][Dap]F[d2Nal][dR]R[dR]R[Dap]-NH2; linker N-7-14 via Trimesoyl)", "values": [{"measurement": "cell viability", "setting": "THP-1 cells; 20 μM", "result": "slightly reduced the cell viability"}, {"measurement": "cytotoxicity", "setting": "THP-1 cells; up to 10 μM", "result": "no cytotoxicity"}, {"measurement": "inhibition of E. chaffeensis infection", "setting": "E. chaffeensis [1]; 10 μM, 2 days, vs DMSO control", "result": "significantly inhibited"}, {"measurement": "dose dependence of inhibition of E. chaffeensis infection", "setting": "E. chaffeensis [1]; 1, 5, and 10 μM", "result": "dose-dependent manner"}, {"measurement": "effect on mitochondrial localization of Etf-1-GFP", "setting": "Etf-1-GFP", "result": "neither peptide B7 nor C17 affected mitochondrial localization"}, {"measurement": "localization of Etf-1 to E. chaffeensis inclusions", "setting": "Etf-1; 10 μM from 3 h pi", "result": "significantly inhibited the localization"}, {"measurement": "effect on mitochondrial localization of native Etf-1", "setting": "Etf-1; 10 μM", "result": "did not affect"}, {"measurement": "inhibition of E. chaffeensis infection", "setting": "E. chaffeensis [2]", "result": "significantly inhibited"}]}
